# Assay results from publication PMC7722660 (Neuropsychopharmacology Reports, 2020).
# Values joined by “and” are separate entries in the source; they are usually repeats but may differ in a detail not shown here. Identical values can stand only once.
# What was measured:
# [1] = test system: OX2 receptor; settings: agonist ref 21; cited from earlier work
# [2] = test system: 55 molecular targets, including neurotransmitter receptors, ion channels, and transporters; assay: Cerep ExpresSProfile off-target panel; type: binding; settings: 10 μmol/L
# [3] = Pharmacokinetic study in rats; type: in vivo; settings: rat, plasma
# [4] = Spontaneous locomotor activity in rats; type: in vivo, rat; settings: up to 100 mg/kg, data not shown
# [5] = test system: rats; assay: Rat EEG; type: in vivo; settings: 100 mg/kg p.o., vs vehicle
# [6] = Brain penetration: plasma and brain concentrations in rats; settings: rat, in vivo, po
# [7] = test system: rats; settings: cited from earlier work
# [8] = test system: OX2 receptor; settings: cited from earlier work
compound,measurement,setting,value
"[Ala^11, D‐Leu^15]‐orexin‐B [ADL‐OXB]",selectivity for the OX2 receptor over the OX1 receptor,[1],400 fold
"COc1c(C#N)ccnc1N1C2CCC1CN(C(=O)c1cccnc1-n1cccn1)C2 [SDM‐878, 2‐(3‐(2‐(1H‐pyrazol‐1‐yl)nicotinoyl)‐3,8‐diazabicyclo[3.2.1]octan‐8‐yl)‐3‐methoxyisonicotinonitrile]",inhibitory effects on 55 other molecular targets,[2],≤ 50%
same,half-life,"[3]; iv, 1 mg/kg",22.2 min
same,Cmax,"[3]; po, 30 mg/kg",1180 ng/mL
same,Tmax,"[3]; po, 30 mg/kg",15 min
same,half-life,"[3]; po, 30 mg/kg",25.8 min
same,effect on spontaneous locomotor activity,[4],did not affect
same,effect on duration of REM sleep,[5],did not observe a significant effect
same,effect on duration of NREM sleep,[5]; P < .05,significantly increased
same,effect on time spent in wakefulness,[5]; P < .05,significantly decreased
same,effect on total sleep,[5]; P < .05,significantly increased
same,concentration at 30 min,[6]; 30 mg/kg,110 ng/mL and 28 ng/g
same,concentration at 30 min,[6]; 100 mg/kg,601 ng/mL and 198 ng/g
Cc1cc(C)nc(N2CC3CN(C(=O)c4c(F)cccc4-n4nccn4)CC3C2)n1 (stereo not shown) [JNJ‐42847922],effect on REM sleep,"[7]; rats ref 19, 23",did not exert a significant effect
same,effect on NREM sleep time,"[7]; rats, first 2 hours of sleep ref 19, 23",prolonged
orexin‐B,fold higher affinity for the OX2 receptor than for the OX1 receptor,[8],10 fold
